Results as given in US20190030046A1, “USE OF PURE COMPOUNDS EXTRACTED FROM ANTRODIA CAMPHORATA” (priority 2016, published 2019).

Key:
membrane GLUT4 [1] = assay: Membrane GLUT4 protein expression in C2C12 myotube cells (Western blot); format: cell-based; conditions: 25 min
Procedure: (§1) In the present invention, C2C12 skeletal myoblasts (ATCC, CRL-1772) were maintained in growth media consisting of Dulbecco's modified Eagle's medium (DMEM) (Gibco BRL) and supplemented with 10% Fetal Bovine Serum (FBS) (Hyclone) and 100 U/mL penicillin/100 μg/mL streptomycin (Gibco BRL), and split 1:4 using 0.05% trypsin when 80% confluent. Myoblasts were diluted and placed in a 9 cm-diameter dish. Cells were cultured to achieve 80%-90% confluency and then the growth media was changed as 2% FBS/DMEM every 24 h for 5-7 days.
(§2) In experiments for determining GLUT4 and p-Akt(Ser473)/t-Akt proteins in tubes, differentiated C2C12 cells were serum-starved in DMEM/BSA for 2 h at 37° C. prior to incubation with MeOH crude extract (at 20, 100, 200, and 500 μg/mL), test compounds (at 1, 5, 10, and 25 μg/mL), or vehicle for 25 min, or 100 nM insulin for 25 min.
(§3) The cultures obtained by cell culture above were centrifuged, and the resulting pellet was resuspended in a homogenization buffer. The forgoing steps were performed with a filtration membrane. Protein concentrations were measured using a BCA assay (Pierce). Equal amounts of protein were diluted four times in SDS sample buffer, and subjected to SDS PAGE and Western blotting with antibodies specific for Akt, p-Akt Ser^473, and GLUT4. Density blotting analysis was performed using Alpha Easy FC software.

[2] = tested on: phospho-Akt(Ser473)/total-Akt(Ser473); assay: phospho-Akt(Ser473)/total-Akt in C2C12 myotube cells (Western blot); format: cell-based; conditions: 25 min
Procedure: as §1, §2, §3

[3] = HFD-induced diabetic mice: liver lipids; format: in vivo, C57BL/6J mice; conditions: 4 weeks
[4] = HFD-induced diabetic mice: fasting blood glucose and biochemical indexes; conditions: 4 weeks; for Blood glucose: 12 h fasted HFD mice; for Insulin / Leptin: blood
Procedure: The control group and HFD group contained 10% and 45% fat intake, respectively. The HFD mice were subdivided into 6 groups (9 per group) followed by 8-week induction. […] During the experiment, all mice were fasted overnight, and blood samples were collected from the retro-orbital sinus. Following four-week treatment and feeding, the food was removed, and the mice were fasted for 12 h and then sacrificed. Tissue samples required were collected from the mice and weighted. Some of the tissue samples were immediately stored at −80° C. and frozen for subsequent target gene analysis. Plasma samples were collected via centrifugation of whole blood at 1600×g for 15 min at 4° C., followed by plasma separation within 30 min. Some plasma samples obtained were used for TG and TC analysis. The metabolic parameters, including body weight, weight gain, and food intake, were performed as follows. Body weight was daily measured throughout the study. Body weight gain is considered as the difference between one day and the next day. The total weight of food intake was daily measured, followed by weighing the amount of remaining feed after 24 h. The difference indicates the daily food intake.
One part of the forgoing blood samples collected from the retro-orbital sinus of 12 h fasted mice was immediately used for analysis of glucose levels. The other part was used for analysis of blood TG, TC, free fatty acids, blood insulin, leptin, and adiponectin levels. Blood glucose levels were determined by a glucose analyzer (Model 1500 sidekick glucose analyzer, YSI). Plasma triglycerides (TG), total cholesterol (TC), and free fatty acids (FFA) were determined using commercial kits in accordance with manufacturer's instructions (Triglycerides-E test, Cholesterol-E test, and FFA-C test; Wako Pure Chemical, Osaka, Japan). Insulin and leptin levels were measured by enzyme-linked immunosorbent assay (ELISA) (mouse insulin ELISA kit, Mercodia, Uppsala, Sweden; mouse leptin ELISA kit, Morinaga, Yokohama, Japan).

[5] = HFD-induced diabetic mice: histopathology (H-E) of epididymal white adipose and liver tissue; format: in vivo, C57BL/6J mice; conditions: epididymal white adipose, 4 weeks
Procedure: (§4) The difference indicates the daily food intake.
Examination was performed for parts of EWAT (epididymal white adipose) and liver tissue specimens collected. The specimens above were soaked in formalin and neutral buffered solution and embedded in paraffin. Parts therein (8 μm) were cut and stained with hematoxylin and eosin. Images were photographed by a microscope (Olympus BX51, Olympus, Tokyo, Japan). Please refer to FIGS. 3(A) and 3(B).

[6] = HFD-induced diabetic mice: absolute tissue weight, body weight, food intake; format: in vivo, C57BL/6J mice; conditions: 4 weeks
Excerpt: as §4

phospho-AMPK(Thr172) = assay: Western blot of phospho-AMPK(Thr172)/total-AMPK in skeletal muscle and liver of HFD mice; conditions: compared to HF; HF+Metf, 0.3 g/kg/day oral, 4 weeks
Procedure: (§6) The HFD mice were subdivided into 6 groups (9 per group) followed by 8-week induction. […] Following four-week treatment and feeding, the food was removed, and the mice were fasted for 12 h and then sacrificed. Tissue samples required were collected from the mice and weighted. Some of the tissue samples were immediately stored at −80° C. and frozen for subsequent target gene analysis. Plasma samples were collected via centrifugation of whole blood at 1600×g for 15 min at 4° C., followed by plasma separation within 30 min.
(§7) We determined PPARα and FAS protein expression levels in liver tissue, PPARγ and FAS protein expression levels in adipose tissue, and membrane GLUT4 expression in skeletal muscle adipose. The total membrane fraction was collected with the buffer and determined as previously described. The membrane GLUT4, p-AMPK, and total AMPK protein content were determined by Western Blotting as previously described.

GPAT = assay: Semiquantitative RT-PCR in liver tissue: GPAT; format: in vivo, C57BL/6J mice; conditions: vs HF; HF+Metf, 0.3 g/kg/day oral, 4 weeks
Procedure: as §4
(§5) Total RNA from liver tissue was isolated with a Trizol Reagent (Molecular Research Center, Inc., Cincinnati, Ohio, USA) according to the manufacturer's instructions. The integrity of the extracted total RNA was examined by 2% agarose gel electrophoresis, and the RNA concentration was determined by […] ultraviolet (UV) light absorbency at 260 nm and 280 nm (Spectrophotometer U-2800A, Hitachi). The total RNA (1 μg) was reverse transcribed to cDNA, and 5 μL Moloney murine leukemia virus reverse transcriptase (TEpicentre, Madison, Wis., USA). The PCR was performed in a final 25 μL containing 1 U Blend Taq-Plus (TOYOBO, Japan), 10 μL of the RT cDNA product, 10 μM of each forward (F) and reverse (R) primer, 75 mM Tris-HCL (pH 8.3) containing 1 mg/L Tween 20 (pH 8.3, also known as polyoxyethylene sorbitan monolaurate), 2.5 mM dNTP (deoxy-ribonucleoside triphosphate), and 2 mM MgCl2 (magnesium chloride). The PCR products were analyzed by 2% agarose gel and stained with ethidium bromide.

PPARγ = assay: Western blot of PPARγ protein in liver and adipose tissue of HFD mice; conditions: compared to HF; HF+Metf, 0.3 g/kg/day oral, 4 weeks
11β-HSD1 = assay: Semiquantitative RT-PCR in liver tissue: 11β-HSD1; format: in vivo, C57BL/6J mice; conditions: vs HF; HF+Metf, 0.3 g/kg/day oral, 4 weeks
Procedure: as §4, §5

G6-Pase = assay: Semiquantitative RT-PCR in liver tissue: G6-Pase; format: in vivo, C57BL/6J mice; conditions: vs HF; HF+Metf, 0.3 g/kg/day oral, 4 weeks
Procedure: as §4, §5

PPARα = assay: Western blot of PPARα protein in liver of HFD mice; conditions: compared to HF; HF+Metf, 0.3 g/kg/day oral, 4 weeks
membrane GLUT4 [7] = assay: Western blot of skeletal muscle membrane GLUT4 in HFD mice; conditions: compared to HF; HF+Metf, 0.3 g/kg/day oral, 4 weeks
Procedure: as §6, §7

FAS = assay: Western blot of FAS protein in liver and adipose tissue of HFD mice; conditions: compared to HF; HF+Metf, 0.3 g/kg/day oral, 4 weeks
Procedure: as §6, §7

CPT-1a = assay: Semiquantitative RT-PCR in liver tissue: CPT-1a; format: in vivo, C57BL/6J mice; conditions: vs HF; HF+Metf, 0.3 g/kg/day oral, 4 weeks
Procedure: as §4, §5

aP2 = assay: Semiquantitative RT-PCR in liver tissue: aP2; format: in vivo, C57BL/6J mice; conditions: vs HF; HF+Metf, 0.3 g/kg/day oral, 4 weeks
Procedure: as §4, §5

SREBP-2 = assay: Semiquantitative RT-PCR in liver tissue: SREBP-2; format: in vivo, C57BL/6J mice; conditions: vs HF; HF+Metf, 0.3 g/kg/day oral, 4 weeks
Procedure: as §4, §5

SREBP-1c = assay: Semiquantitative RT-PCR in liver tissue: SREBP-1c; format: in vivo, C57BL/6J mice; conditions: vs HF; HF+Metf, 0.3 g/kg/day oral, 4 weeks
Procedure: as §4, §5

[8] = HFD mice, HF+Feno, 250 mg/kg/day oral
[9] = HFD mice, HF+Metf, 300 mg/kg/day oral
[10] = plasma, HFD mice, HF+Metf, 300 mg/kg/day oral

Compound: C=C(CC[C@@H](C)[C@H]1CC[C@H]2C3=C(C(=O)C[C@]12C)[C@@]1(C)CC[C@@H](O)[C@](C)(O)[C@@H]1C[C@@H]3O)C(C)C(=O)O (stereo partly shown) [AnK, Antcin K]
- protein expression level of membrane GLUT4 (membrane GLUT4 [1]; 5, 10, and 25 μg/mL): increase
- protein expression level of phospho-Akt(Ser473)/total-Akt(Ser473) ([2]; AnK 10 and 25 μg/mL): increase

Compound: CC(C)OC(=O)C(C)(C)Oc1ccc(C(=O)c2ccc(Cl)cc2)cc1 [Feno, fenofibrate, reference compound]
- Liver lipids: Total lipid ([3]; HF+Feno, 250 mg/kg/day oral): 62.0 mg/g
- Liver lipids: Triacylglycerol ([3]; HF+Feno, 250 mg/kg/day oral): 48.6 µmol/g
- Blood glucose ([4]; HF+Feno, 250 mg/kg/day oral): 86.56 mg/dL
- Plasma FFA [4, 8]: 0.86 meq/L
- Insulin [4, 8]: 2.402 µg/L
- Leptin [4, 8]: 7.507 ng/mL
- TG ([4]; plasma, HFD mice, HF+Feno, 250 mg/kg/day oral): 83.35 mg/dL
- Adipocyte area ([5]; HF+Feno, 0.25 g/kg/day oral): 6270.5 ± 165.4 μm^2
- Final body weight ([6]; HF+Feno, 250 mg/kg/day oral): 26.04 g
- Food intake ([6]; HF+Feno, 250 mg/kg/day oral): 2.05 g/day/mouse
- Weight gain ([6]; HF+Feno, 250 mg/kg/day oral): 0.46 g

Compound: CN(C)C(=N)N=C(N)N [Metf, metformin, reference compound]
- expression level of p-AMPK/t-AMPK proteins in liver (phospho-AMPK(Thr172)): significantly increased
- expression level of phospho-AMPK/total-AMPK in skeletal muscle (phospho-AMPK(Thr172)): significantly increased
- GPAT mRNA expression level in liver (GPAT): decreased
- PPARγ protein expression level in adipose tissue (PPARγ): significantly decreased
- PPARγ protein expression level in liver (PPARγ): significantly decreased
- 11β-HSD1 mRNA expression level in liver (11β-HSD1): decreased
- Liver lipids: Total lipid ([3]; HF+Metf, 300 mg/kg/day oral): 61.1 mg/g
- Liver lipids: Triacylglycerol ([3]; HF+Metf, 300 mg/kg/day oral): 49 µmol/g
- G6-Pase mRNA expression level in liver (G6-Pase): decreased
- PPAR protein expression level in liver (PPARα): significantly increased
- membrane expression level of GLUT4 in skeletal muscle (membrane GLUT4 [7]): significantly increased
- Blood glucose ([4]; HF+Metf, 300 mg/kg/day oral): 87.33 mg/dL
- Plasma FFA [4, 9]: 0.85 meq/L
- Insulin [4, 9]: 2.467 µg/L
- Leptin [4, 9]: 7.359 ng/mL
- TC [4, 10]: 117.20 mg/dL
- TG [4, 10]: 82.07 mg/dL
- FAS protein expression level in adipose tissue (FAS): significantly decreased
- FAS protein expression level in liver (FAS): significantly decreased
- CPT-1a mRNA expression level in liver (CPT-1a): increased
- aP2 mRNA expression level in liver (aP2): decreased
- Adipocyte area ([5]; HF+Metf, 0.3 g/kg/day oral): 6919.5 ± 195.1 μm^2
- Absolute tissue weight: Visceral fat ([6]; EWAT plus RWAT, HF+Metf, 300 mg/kg/day oral): 662 mg
- Absolute tissue weight: Brown adipose tissue (BAT) ([6]; HF+Metf, 300 mg/kg/day oral): 134 mg
- Absolute tissue weight: Epididymal white adipose tissue (EWAT) ([6]; HF+Metf, 300 mg/kg/day oral): 482 mg
- Absolute tissue weight: Liver ([6]; HF+Metf, 300 mg/kg/day oral): 1960 mg
- Absolute tissue weight: Mesenteric white adipose tissue (MWAT) ([6]; HF+Metf, 300 mg/kg/day oral): 198 mg
- Absolute tissue weight: Retroperitoneal white adipose tissue (RWAT) ([6]; HF+Metf, 300 mg/kg/day oral): 180 mg
- Absolute tissue weight: Spleen ([6]; HF+Metf, 300 mg/kg/day oral): 81 mg
- Final body weight ([6]; HF+Metf, 300 mg/kg/day oral): 26.35 g
- Food intake ([6]; HF+Metf, 300 mg/kg/day oral): 2.25 g/day/mouse
- Weight gain ([6]; HF+Metf, 300 mg/kg/day oral): 0.52 g
- SREBP-2 mRNA expression level in liver (SREBP-2): decreased
- SREBP-1c mRNA expression level in liver (SREBP-1c): decreased

Compound: insulin [reference compound]
- protein expression level of membrane GLUT4 (membrane GLUT4 [1]; 100 nM insulin): increase
- protein expression level of phospho-Akt(Ser473)/total-Akt(Ser473) ([2]; 100 nM insulin): increase
